Test results taken from EP0949238A1, “SUBSTITUTED PROPIONYL DERIVATIVES” (DAIICHI PHARMACEUTICAL CO., LTD., priority 1996, dated 1998).

Legend:
rat liver cells = assay: Cholesterol synthesis inhibitory activity in rat liver cells ([14C]-acetic acid uptake in cholesterol); format: cell-based; settings: concentration inhibiting 50% of [14C] acetic acid radioactivity uptake into cholesterol; SD rat liver cells; read-out: Cholesterol synthesis inhibitory action in rat liver cells IC50 (10^-6M)
Procedure: Liver cells were isolated from rat livers by the in situ collagenase perfusion method. Described specifically, a 6-week-old male SD rat was intraperitoneally administered with a 50 mg/ml pentobarbital sodium solution and thereby anesthetized. After ventrotomy and cannulation from the portal vein, the rat was sacrificed under exsanguination by the excision of the lower large vein. From the cannula, a Hanks solution (pH 7.2) containing 2% albumin, 0.5 mM ethyleneglycolbis(2-aminoethylether) tetraacetate (EGTA) and 10 mM HEPES and being free from a divalent calcium ion and a divalent magnesium ion was subjected to perfusion (flow rate: 0.5 ml/sec) for 5 minutes. The Hanks solution was then changed to another Hanks solution (pH 7.5) having 0.05% collagenase, 4 mM calcium chloride and 10 mM HEPES added thereto and perfusion was continued for further 15 to 20 minutes. After confirmation of the sufficient digestion by collagenase, the liver tissue was placed on a Petri dish, 30 ml of a Dulbeco's modified Eagle's (DEM) medium was added thereto and cells were dispersed by drawing through suction. A cell filter was employed to remove the undigested tissue. The resulting cell suspension was subjected to centrifugal separation at 600 rpm for 1 minute. A 30 ml of DME medium was added to the sediment to disperse the cells, followed by centrifugal separation at 600 rpm for 1 minute. After these washing procedures by centrifugation were repeated three times in total, the liver cell suspension was suspended in a DME medium containing 10% of lipoprotein deficient serum (LPDS). The resulting suspension was seeded on a commercially-available 6-well plate coated with collagen at a cell density of 1 x 10^6 cells per well, followed by incubation overnight in a CO2 incubator (5% CO2 gas, 37°C).
The uptake of [^14C]-acetic acid radioactivity in cholesterol was measured using the liver cells prepared in the above-described manner and the cholesterol synthesis inhibitory activity of the test medicament was evaluated.
Described specifically, the cell culture medium of the liver cells was replaced by a 25 mM HEPES-10% LPDS-DME medium (pH 7.4) containing the test medicament, followed by incubation for one hour in a CO2 incubator. Then, [^14C] sodium acetate was added to give the final concentration of 1 µCi/ml. After incubation for further one hour in the CO2 incubator, the cell culture medium was removed. The cells were washed three times with a phosphate buffered saline (pH 7.2) and then dissolved in 1 ml of a 0.1N aqueous sodium hydroxide solution. […] To the vial, 10 ml of Aquasol 2 was added and ^14C and ^3H radioactivities were counted by a liquid scintillation counter.
The cholesterol synthesis inhibitory activity of the test medicament was calculated in the below-described procedures. […]

squalene synthetase = target: T1, squalene synthetase (Homo sapiens, UniProt P37268); assay: Squalene synthetase inhibitory activity (HepG2 cell microsome fraction, [3H]farnesyl pyrophosphate incorporation into squalene); format: biochemical; settings: HepG2 cell microsome preparation, 5 µM [3H]farnesyl pyrophosphate, 37°C for 20 minutes
T1 construct: 0.01 to 0.1 µg of the HepG2 cell microsome preparation; endogenous in cells; host or cells: HepG2 cells (microsome fraction)
T1 sequence (P37268 1-417): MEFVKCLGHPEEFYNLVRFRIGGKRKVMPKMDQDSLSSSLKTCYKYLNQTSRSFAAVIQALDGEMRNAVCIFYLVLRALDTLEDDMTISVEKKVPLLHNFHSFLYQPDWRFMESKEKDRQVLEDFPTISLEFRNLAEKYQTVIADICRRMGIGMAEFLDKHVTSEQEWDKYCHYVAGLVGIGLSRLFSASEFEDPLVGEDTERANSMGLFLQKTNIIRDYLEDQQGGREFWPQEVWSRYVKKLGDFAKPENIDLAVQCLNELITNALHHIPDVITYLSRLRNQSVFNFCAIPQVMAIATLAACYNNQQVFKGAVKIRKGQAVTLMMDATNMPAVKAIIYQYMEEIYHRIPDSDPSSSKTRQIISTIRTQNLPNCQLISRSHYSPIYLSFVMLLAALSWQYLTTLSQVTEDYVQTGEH
Procedure: As an enzyme source to measure squalane synthetase activity, we prepared a microsome fraction from a human hepatoma-derived cell line, HepG2 cells, according to the method described by Schechter et al. (Journal of Biological Chemistry, Vol. 267, pp.8628-8635, 1992).
Described specifically, HepG2 cells were first homogenized in the presence of a 10 mM N-2-hydroxyethylpiperazin-N'-2-ethanesulfonate (HEPES) buffer containing 0.3M sucrose, 1 mM dithiothreitol (DTT), 1 mM sodium ethylenediaminetetraacetate (EDT) and various protease inhibitors and adjusted to pH 7.4. The resulting mixture was subjected to centrifugal separation at 2,000 x g for 5 minutes and then 10,000 x g for 15 minutes. The protease inhibitors employed were phenylmethanesulfonyl fluoride (PMSF), leupeptin and aprotinin, which were added to give the final concentration of 1 mM, 10 µM and 5 µg/ml, respectively. The supernatant after centrifugation was centrifuged further at 105,000 xg for 60 minutes. The precipitate thus obtained was suspended in a 20 mM phosphate buffer (pH 7.4) containing 1 mM DTT, 1 mM EDTA and the above-described protease inhibitors and the resulting suspension was washed twice by centrifugation at 105,000 x g for 30 minutes. The precipitate was then suspended in a 20 mM phosphate buffer (pH 7.4) containing 1 mM DTT and 1 mM EDTA and the resulting suspension was similarly centrifuged. […]

C[C@H](NC(=O)C[C@@H](CC(=O)O)C(=O)O)[C@@H](Cc1ccc(Cl)c(Cl)c1)OC(=O)c1ccc2ccccc2c1 [Compound A, (2S)-2-[N-{(1S,2R)-3-(3,4-dichlorophenyl)-1-methyl-2-(2-naphthoyloxy)propyl}carbamoylmethyl] succinic acid, reference compound]
IC50 (rat liver cells): 320 nM

CN(CCCCCc1ccc2ccccc2c1)C(=O)[C@H](OCCCCNc1ccc2c(c1)CCC2)[C@@H](OCC(=O)O)C(=O)O [Example 48, (2R,3R)-2-Carboxymethoxy-3-[4-(5-indanylamino)butoxy]-3-[N-methyl-N-[5-(2-naphthyl)pentyl]carbamoyl]propionic acid]
IC50 (rat liver cells): 19 nM

CC(C)(C)CN1C(=O)[C@@H](CC(=O)NCC(=O)O)O[C@H](c2ccccc2Cl)c2cc(Cl)ccc21 [Compound B, N-[(3R,5S)-7-chloro-5-(2-chlorophenyl)-1-neopentyl-2-oxo-1,2,3,5-tetrahydro-4,1-benzoxazepin-3-acetyl] aminoacetic acid, reference compound]
IC50 (rat liver cells): 390 nM

O=C(O)CO[C@@H](C(=O)O)[C@@H](OCCCCCc1ccc2ccccc2c1)C(=O)NCCCCCc1ccc2ccccc2c1 [Example 1, (2R,3R)-2-Carboxymethoxy-3-[N-[5-(2-naphthyl)pentyl]carbamoyl]-3-[5-(2-naphthyl)pentyloxy]propionic acid]
IC50 (rat liver cells): 150 nM
IC50 (squalene synthetase): 0.3 nM
